≈ marks a conversion by molar mass, not a printed value.
Tests used:
Settings in all cases: ATCC 35743, 10 min
[1] = system: Mycobacterium tuberculosis variant bovis BCG; test: Antitubercular activity against Mycobacterium bovis BCG ATCC 35743 at 30 ug/ml after 10 mins by NR assay; assay type: functional
[2] = system: Mycobacterium tuberculosis variant bovis BCG; test: Antitubercular activity against Mycobacterium bovis BCG ATCC 35743 at 10 ug/ml after 10 mins by NR assay; assay type: functional
[3] = system: Mycobacterium tuberculosis variant bovis BCG; test: Antitubercular activity against Mycobacterium bovis BCG ATCC 35743 at 3 ug/ml after 10 mins by NR assay; assay type: functional
[4] = system: Mycobacterium tuberculosis variant bovis BCG; test: Antitubercular activity against Mycobacterium bovis BCG ATCC 35743 after 10 mins by NR assay; assay type: functional, organism-based

SMILES | inhibition at 30 µg/mL [1] [%] | inhibition at 10 µg/mL [2] [%] | inhibition at 3 µg/mL [3] [%] | IC50 [4] [µg/mL] | MIC [4] [µg/mL]
O=C1CSc2ccccc2N1Cc1cn(Cc2cccc(Cl)c2)nn1 | 95.5 | 16.4 | 3.3 | 18.6 (≈ 50.1 µM) | 28.4 (≈ 76.7 µM)
O=C1CSc2ccccc2N1Cc1cn(Cc2ccc(Cl)cc2)nn1 | 58.1 | 55.2 | 66.1 | 8.55 (≈ 23.1 µM) | > 30
O=C1CSc2ccccc2N1Cc1cn(Cc2ccccc2Cl)nn1 | 58 | 80.2 | 32 | > 30 | > 30
CO[C@H]1/C=C/O[C@@]2(C)Oc3c(C)c(O)c4c(O)c(c(/C=N/N5CCN(C)CC5)c(O)c4c3C2=O)NC(=O)/C(C)=C\C=C\[C@H](C)[C@H](O)[C@@H](C)[C@@H](O)[C@@H](C)[C@H](OC(C)=O)[C@@H]1C [RIFAMPIN] |  |  |  | 0.0016 (≈ 0.00194 µM) | 0.041 (≈ 0.0498 µM)
O=C1CSc2ccccc2N1Cc1cn(Cc2ccc(Br)cc2)nn1 | 43.9 | 35.3 | 58.8 | > 30 | > 30
O=C1CSc2ccccc2N1Cc1cn(Cc2ccc(F)cc2)nn1 | 95.3 | 52.9 | 40.6 | 8.25 (≈ 23.3 µM) | 27.5 (≈ 77.6 µM)
O=C1CSc2ccccc2N1Cc1cn(Cc2ccc([N+](=O)[O-])cc2)nn1 | 91.1 | 59.2 | 28.3 | 7.89 (≈ 20.7 µM) | 29.4 (≈ 77 µM)
O=C1CSc2ccccc2N1Cc1cn(Cc2cccc([N+](=O)[O-])c2)nn1 | 88.5 | 62.2 | 36.1 | 6.89 (≈ 18.1 µM) | > 30
O=C1CSc2ccccc2N1Cc1cn(-c2ccc([N+](=O)[O-])cc2)nn1 | 33.1 | 30.7 | 15.9 | > 30 | > 30
O=C1CSc2ccccc2N1Cc1cn(Cc2ccccc2)nn1 | 74.3 | 26.8 | 1.1 | 19.8 (≈ 58.7 µM) | > 30
NNC(=O)c1ccncc1 [ISONIAZID] |  |  |  | 0.0023 (≈ 0.0168 µM) | 0.045 (≈ 0.328 µM)
O=C1CSc2ccccc2N1Cc1cn(-c2cccc([N+](=O)[O-])c2)nn1 | 26.6 | 31.3 | 39.3 | > 30 | > 30
